Where two headings read alike, the source gives them in different places. Each block holds one compound with its values, some of them ahead of it.
How the values were obtained:
normal subject = test system: normal subject
Experimental: Five normal subjects were used as controls. One subject was used to investigate the effect of clonidine on normal skin (i.e., the top of the foot). The four remaining subjects were used to assess the effect of intradermal norepinephrine and phenylephrine in normal skin.
To exclude further local anesthetic effects of clonidine, a clonidine patch was applied to the top of a normal subject's foot and sensory testing was performed prior to and 40 hours after the patch application.

patients with SMP [1] = assay: Intradermal norepinephrine and phenylephrine in SMP patients (clonidine patch site, normal site)
Experimental: Effects of Intradermal Norepinephrine and Phenylephrine: In two patients, intradermal injections of the non-specific α-adrenergic agonist norepinephrine (5 μg in 10 μl normal saline) or the α-adrenergic agonist phenylephrine (10 μg in 10 μl normal saline) were made at a patch site immediately after removing the patch. Norepinephrine and phenylephrine injections were also made at control sites on the patients' normal limb and into the normal skin of 4 healthy control subjects. […] All injection were made in a single-blinded fashion. The patients and control subjects were instructed to rate the magnitude of any evoked pain and resultant hyperalgesia on a verbal scale from 0 to 10.

patients with SMP [2] = details: cited from earlier work; for effect on pain in patients with SMP: in vivo
healthy control subjects = assay: Intradermal norepinephrine and phenylephrine in normal skin of control subjects; format: in vivo, human
Experimental: Five normal subjects were used as controls.
Effects of Intradermal Norepinephrine and Phenylephrine: In two patients, intradermal injections of the non-specific α-adrenergic agonist norepinephrine (5 μg in 10 μl normal saline) or the α-adrenergic agonist phenylephrine (10 μg in 10 μl normal saline) were made at a patch site immediately after removing the patch. […] All injection were made in a single-blinded fashion. The patients and control subjects were instructed to rate the magnitude of any evoked pain and resultant hyperalgesia on a verbal scale from 0 to 10.

α1 and α2 receptors = details: cited from earlier work
[3] = in vivo; cited from earlier work
patients with SMP [4] = assay: Intravenous phentolamine block in patients with SMP; format: in vivo, human
Experimental: If peripheral α-adrenergic receptors are blocked completely, skin temperature would approach core temperature. Such a blockage would produce profound hypotension and a reflex tachycardia. […] This dose ranged from 35 mg to 45 mg over a 30 minute period.
The heart rate, systolic and diastolic blood pressure changes produced by phentolamine in a typical patient were relatively mild. In the first seven patients phentolamine alone was administered.
The patient was diagnosed as having SMP and then underwent local LABSG, and the administration of phentolamine systemically by intravenous injection.
Seventeen patients received both phentolamine and LABSG. The time of maximum relief of stimulus evoked pain correlated highly with the time at which there was maximum relief of stimulus-independent pain. All pain scores were converted to percent pain relief. The peak relief of stimulus independent pain for the LABSG compares favorably to the peak relief obtained from the phentolamine block. […] Patients with less than 50% pain relief from both procedures were considered to have pain independent of SMP. There was a high correlation of the results of the two procedures (r=0.78).

From the text for patients with SMP or SIP: Patient Selection and Control Subjects: Six normotensive patients with chronic ongoing pain and cutaneous hyperalgesia to mechanical and cooling stimuli following soft tissue or nerve trauma were examined. All patients had previously undergone sympathetic blocks (i.e., local anesthetic blockade of the appropriate sympathetic ganglia) to assess the involvement of the sympathetic nerves in their pain state.
A series of 2-7 patches were applied consecutively to different sites within the hyperalgesic zone. Each patch was left in place for 2-10 days within this affected zone. Prior to, during and immediately after drug application, the following parameters were monitored: heart rate, blood pressure, ongoing pain and pain to mechanical and cold stimuli.
The scale consisted of a 100 mm line where “no pain” and “most intense pain” were indicated on the left and right ends of the scale respectively. […] The mechanical stimuli included innocuous brushing with a camel's hair brush and innocuous pressure from the 206 g weight of a 13 mm diameter (i.e., 2N) brass probe. Pain thresholds to mechanical stimuli were determined in the area within and surrounding the patch sites using calibrated von Frey filaments. The cooling stimulus consisted of small drops of acetone lightly placed onto the patient's skin. […] 3) Tactile sensibility: To rule out local anesthetic effects, the detection (touch) thresholds were determined in the area within the surrounding selected patch sites using calibrated von Frey filaments. In addition, the patient's ability to distinguish the blunt from the sharp ends of a pin was also assessed. The patients were instructed to close their eyes during the hyperalgesia and von Frey threshold testing procedures.

Compound: Clc1cccc(Cl)c1N=C1NCCN1 [clonidine]
mechanical detection thresholds inside and outside the patch site (patients with SMP or SIP; Case 1): identical | pain threshold to von Frey filaments within the patch site (patients with SMP or SIP; Case 1): approximated the patient's ‘normal’ pain threshold | ratings of stimulus-independent pain (patients with SMP or SIP; Case 1): not affected | time hyperalgesia still absent after removing a patch (patients with SMP or SIP; Case 1): at least 12 hours | Mechanical Hyperalgesia: post-clonidine (patients with SMP or SIP; Case 1, SMP, lower extremity): − | Touch Detection Threshold: post-clonidine (patients with SMP or SIP; Case 1, SMP, pre-clonidine 4): 4 bars | ability to distinguish sharp from blunt stimuli (patients with SMP or SIP; Case 1, after patch removal): not affected | mechanical (brush, pressure) and cooling (acetone) stimuli at patch site (patients with SMP or SIP; Case 1, after removal of patch applied for 36 hours): detected but were not painful | pain rating to light brushing at patch site (patients with SMP or SIP; Case 1, after removal of patch, before norepinephrine injection, untreated skin 4 out of 10): 1 out of 10 | detection thresholds (patients with SMP or SIP; Case 1, four patches (FIG. 2)): unchanged | hyperalgesia to mechanical stimuli (patients with SMP or SIP; Case 1, four patches with quantitative sensory testing (FIG. 2)): greatly reduced and, in many cases, completely eliminated | return of hyperalgesia (patients with SMP or SIP; Case 1, from patch application): within less than a week | time to reduction of mechanical hyperalgesia after patch applied (patients with SMP or SIP; Case 1, noted by patient): 36 to 48 h | Mechanical Hyperalgesia: post-clonidine (patients with SMP or SIP; Case 2, SMP, lower extremity): − | Touch Detection Threshold: post-clonidine (patients with SMP or SIP; Case 2, SMP, pre-clonidine 1): 1 bars | Touch Detection Threshold: post-clonidine (patients with SMP or SIP; Case 3, SMP, pre-clonidine 1.5): 1.5 bars | reduction of ongoing pain (patients with SMP or SIP; Case 4): 50-75% | Mechanical Hyperalgesia: post-clonidine (patients with SMP or SIP; Case 4, SMP, face): − | Touch Detection Threshold: post-clonidine (patients with SMP or SIP; Case 4, SMP, pre-clonidine 0.5): 0.5 bars | relief of hyperalgesia throughout entire affected zone (patients with SMP or SIP; Case 4, application to the upper lip): complete relief of hyperalgesia | Mechanical Hyperalgesia: post-clonidine (patients with SMP or SIP; Case 5, SIP, upper extremity): + | hyperalgesia and ongoing pain (patients with SMP or SIP; Case 5, SIP, application to palmar aspect of the hand): Neither the patient's hyperalgesia nor ongoing pain were improved | Touch Detection Threshold: post-clonidine (patients with SMP or SIP; Case 5, SIP, pre-clonidine 1): 1 bars | hyperalgesia to cold stimuli (patients with SMP or SIP; Case 6, SIP): not affected | Mechanical Hyperalgesia: post-clonidine (patients with SMP or SIP; Case 6, SIP, lower extremity): + | reduction in ongoing pain and mechanical hyperalgesia to brush stimuli (patients with SMP or SIP; Case 6, SIP, patches on dorsum of the foot): approximately 35% | Touch Detection Threshold: post-clonidine (patients with SMP or SIP; Case 6, SIP, pre-clonidine 2): 2 bars | overall level of stimulus-independent pain (patients with SMP or SIP; Cases 2, 3): did not report any reduction | extent of hyperalgesia relief (patients with SMP or SIP; Cases 2, 3, zone greater than half of lower extremity): only eliminated hyperalgesia at or near the site of drug application | alteration in blood pressure or heart rate (patients with SMP or SIP; any of the patients): No appreciable alteration | pain or hyperalgesia (summary) (patients with SMP or SIP; cases 5 and 6, pain independent of the sympathetics): little effect on pain or hyperalgesia | skin reaction surrounding the patch site (patients with SMP or SIP; following some patch applications, treatment discontinued in cases 1, 4): erythematous rash | mechanical and cold hyperalgesia at the site of drug administration (summary) (patients with SMP or SIP; patients with SMP): significantly reduced mechanical and cold hyperalgesia | side effects from clonidine patches (patients with SMP or SIP; six patients): minor | time to reduction of pain evoked by deep pressure, light brushing and cooling stimuli (patient with SMP; after patch application): 24 to 36 h | time to complete abolition of evoked pain (patient with SMP; following patch application): ≤ 48 h | persistence of effect after removal of the patch (patient with SMP; human, in vivo): more than 24 hours | adverse side effects, cardiovascular parameters (patient with SMP; same patient): no adverse side effects or changes in cardiovascular parameters | hyperalgesia of skin surrounding the patch (patient with SMP; same patient): remained hyperalgesic | relief of hyperalgesia in the skin underlying the patch (patient with SMP; sciatic nerve injury patient, 0.2 or 0.3 mg/day patch, 6 patches, 2-10 days each): Complete relief | detection threshold to mechanical stimuli in the patient (patient with SMP; test for local anesthetic effect): did not alter | detection or pain threshold to mechanical stimuli in a normal subject (normal subject; Example 2, test for local anesthetic effect): did not alter | pain and detection threshold to von Frey filaments (normal subject; top of normal subject's foot, 40 hours after patch application): Neither the pain nor detection threshold to von Frey filaments were affected

Compound: NC[C@H](O)c1ccc(O)c(O)c1 [norepinephrine]
pain evoked by injection at clonidine patch site (patients with SMP [1]; Case 1, intradermal 5 μg in 10 μl saline): intense, burning pain sensation | mechanical hyperalgesia rating at the patch site (patients with SMP [1]; Case 1, twenty-five minutes after injection): 3.5 out of 10 | pain and hyperalgesia after injection into normal limb (patients with SMP [1]; Cases 1 and 4, normal limb): evoked intense pain, but did not result in hyperalgesia | pain or hyperalgesia in normal subjects (patients with SMP [2]; intradermal injection): does not cause pain or hyperalgesia | effect on pain and hyperalgesia relieved by sympathectomy or sympathetic block (patients with SMP [2]; intradermal injection, patients): rekindles the pain and hyperalgesia | pain and hyperalgesia after intradermal injection into the leg (healthy control subjects; four control subjects, norepinephrine 5 μg): mild, short lasting pain and no hyperalgesia

Compound: CC(COc1ccccc1)N(CCCl)Cc1ccccc1 (stereo not shown) [phenoxybenzamine]
effect on pain in patients with SMP (patients with SMP [2]): can be effective in relieving pain | potency in blocking α1 (postsynaptic) receptors relative to α2 receptors (α1 and α2 receptors): approximately 100 fold

pulse rate change (patients with SMP [4]; patients pretreated with propranolol 1-2 mg): minimal increase
Compound: Cc1ccc(N(CC2=NCCN2)c2cccc(O)c2)cc1 [phentolamine]
plasma half-life [3]: approximately 20 minutes | pain relief following the blocks (local anesthetic sympathetic ganglion block, i.v. phentolamine) (patients with SMP [4]; Example 3 cases 1-4 (case 2 had no phentolamine block)): 70-100% | effect of block on pain (patients with SMP [4]; Example 3 cases 5, 6 (SIP)): not affected | side effect: dizziness (patients with SMP [4]; IV phentolamine): 2 patients | side effect: headache (patients with SMP [4]; IV phentolamine): 3 patients | side effect: nasal stuffiness (patients with SMP [4]; IV phentolamine): 12 patients | pain relief in patients with SMP (preliminary studies) (patients with SMP [4]; cumulative dose 35 mg to 45 mg over a 30 minute period): effectively relieved pain | heart rate change (patients with SMP [4]; first seven patients, phentolamine alone): increased moderately | time for pain to return to within 75% of baseline (patients with SMP [4]; five patients with more than 50% pain relief from phentolamine block): 2 to 7 h | pain relief with the phentolamine block (patients with SMP [4]; one patient with 45% maximum relief with LABSG): no relief | mean pain relief (patients with SMP [4]; patients who had 50% or greater pain relief following LABSG): 75% | reduction in pain as measured by visual analysis scores (patients with SMP [4]; person, SMP right foot, IV, accumulated dose of 25 mg over 15 minutes): 80% | time course over which pain gradually returned (patients with SMP [4]; same patient): about three | time pain remained at low level (patients with SMP [4]; same patient, after last phentolamine dose): about two | patient's pain relieved (patients with SMP [4]; same patient, after two further injections each of 10 mg): over 80% | gradual decrease in stimulus-independent pain (patients with SMP [4]; same patient, first 4 boli IV, total dose 15 mg): about 50% | blood pressure change (patients with SMP [4]; supine, with or without propranolol): little effected | effect on sympathetically-maintained pain and hyperalgesia (patients with SMP [2]; intravenous administration): rapidly abolishes sympathetically-maintained pain and hyperalgesia | potency in inhibiting α1- relative to α2-adrenergic receptors (α1 and α2 receptors): three to five

Compound: CNC[C@H](O)c1cccc(O)c1 [phenylephrine]
pain evoked at control site (volar forearm) (patients with SMP [1]; Case 4): moderate pain of shorter duration | ongoing level of pain (patients with SMP [1]; Case 4, approximately 25 minutes after injection): increased substantially | pain evoked by injection at clonidine patch site (patients with SMP [1]; Case 4, intradermal 10 μg in 10 μl saline, after 3 days of clonidine): intense stinging pain | pain and hyperalgesia after injections (healthy control subjects; control subjects, phenylephrine 10 μg): Only brief, mild pain sensations and no hyperalgesia

Compound: COc1cc2nc(N3CCN(C(=O)c4ccco4)CC3)nc(N)c2cc1OC [prazosin]
effect on pain in patients with SMP (patients with SMP [2]): can be effective in relieving pain | receptor subtype selectivity (α1 and α2 receptors): highly selective α1-blocking agent

Compound: CC(C)NCC(O)COc1cccc2ccccc12 (stereo not shown) [propranolol]
effect on pain when added after α-adrenergic blockade (patients with SMP [4]; 0.5 mg intravenously, five minutes after last phentolamine dose): did not add appreciably to the analgesia | effect on pain in patients with SMP (patients with SMP [2]): little effect on SMP

Reference: patent USRE41998E1, “Compositions and methods of treatment of sympathetically maintained pain” (Arclon Therapeutics, Inc., priority 1990, dated 2010)
